The record followed here is publication PMC4702177, “Discovering new mTOR inhibitors for cancer treatment through virtual screening methods and in vitro assays” (Scientific Reports, 2016).

Experiment in all cases: In vitro cell proliferation assay
What all share (type): cell-based

The test system of assay [1] is HeLa (human cervical cancer cell). The note with it: Homo sapiens, 48 h, highest concentration 100 μM, read-out: IC50 (anti-proliferative). The protocol:
(§1) Most human breast cancer cells and cervical cancer cells become resistant to current chemotherapeutic drugs due to mutation of apoptotic mechanisms. It has been reported that MCF-7 cells are resistant to most of the drugs approved by the US Food and Drug Administration (FDA), including paclitaxel, doxorubicin, 5-fluorouracil, etoposide, and camptothecin[31][32].
(§2) Cell proliferation was measured with an MTS assay (CellTiter 96 Aqueous ONE Solution kit; Promega, Madison, USA). MCF-7, HeLa, MGC-803, C6 and U87 cells in log-phase were seeded (5 × 10^3 cells/well) in 96-well plates for 24 h, and then the medium were replaced with fresh medium containing different concentrations of compounds. […] After incubation for 48 h, the cells were further incubated with 20 μL of MTS for 1–4 h at 37 °C in a humidified incubator with 5% CO2. The absorbance at 490 nm was measured using a mircoplate reader (Model680, Bio-Rad; Hercules, CA, USA). The inhibition rate (%) was calculated as equation (1): […]
(§3) IC50 values were determined from the results of at least three independent tests and calculated from the inhibition curves.

Assay [2] deals with MCF-7 (human breast cancer cell). The note with it: Homo sapiens, MCF7, 48 h, 48 h, highest concentration 100 μM, read-out: IC50 (anti-proliferative). The protocol: as §1, §2, §3
For assay [3], the system named is MGC-803 (human gastric cancer). The note with it: Homo sapiens, MGC-803, 48 h, 48 h, highest concentration 100 μM, read-out: IC50 (anti-proliferative). The protocol:
as §1, §2, §3

Assay [4] concerns C6 (Glioma cell). The note with it: C6 glioma, 48 h, highest concentration 100 μM, read-out: IC50 (anti-proliferative). The protocol:
as §1, §2, §3

For the compound `Nc1nn2c(nc(N)c3c(N)n[nH]c32)c1/N=N/c1ccccc1` [Compound 17], the 50% inhibitory concentration (IC50) in assay [1] came to 2.74 µM; in assay [2], 1.9 µM; in assay [3], 3.5 µM; in assay [4] it was 11.1 µM.

The term IC50 denotes the concentration at which inhibition is half-maximal.
